From patent publication US9708295B2, “Substituted 2-aminopyridine protein kinase inhibitor” (CHIA TAI TIANQING PHARMACEUTICAL GROUP CO., LTD, priority 2013, dated 2017) come the findings set out here.

The structures appear in SMILES notation.

The target of one data set is CYP-3A4 (Homo sapiens (Human), UniProt P08684). Kind of data set: Inhibition of CYP-3A4 (midazolam substrate). The format is in vitro ADME. Particulars: for IC50: substrate midazolam, read-out: Inhibition to CYP-3A4, 3A4_Midazolam.
Data set [1] concerns human non-small cell lung carcinoma NCI-H2228. Kind of data set: Therapeutic effect on human non-small cell lung carcinoma NCI-H2228 xenografts in nude mice. The format is in vivo. The settings on record: D0-13 once a day; for Average tumor volume (mm^3) D0: D0 baseline at grouping.
The target in another data set is ALK kinase (Homo sapiens (Human), UniProt Q9UM73). The settings on record: read-out: IC50 (nM), ALK inhibition activity; HTRF, ATP at Km. (In TR-FRET formats the signal depends on donor and acceptor labels being close together.)
Data set [2] concerns the target L1196M mutated ALK kinase (Homo sapiens (Human), UniProt Q9UM73, L1196M). The data set can be described thus: biochemical.
In data set [3] the target is G1269S mutated ALK kinase (Homo sapiens (Human), UniProt Q9UM73, G1269S). The data set can be described thus: biochemical.
Data set [4] is described as follows: In vivo pharmacokinetics in SD rats. The settings on record: Sprague-Dawley, rat, po, 5 mg/kg.
The next data set in a line: in vivo. The settings on record: Sprague-Dawley, rat, po, 5 mg/kg.

In general, AUC(0-inf) refers to total exposure, with the tail of the curve extrapolated. Low readings indicate less exposure, high ones more exposure. For orientation: Cmax means the highest concentration seen after dosing. What is called Tmax is the time from dosing to the highest level. As a reminder, the half-life is the time in which the quantity being followed falls by half.

CYP-3A4, sequence (P08684 whole entry): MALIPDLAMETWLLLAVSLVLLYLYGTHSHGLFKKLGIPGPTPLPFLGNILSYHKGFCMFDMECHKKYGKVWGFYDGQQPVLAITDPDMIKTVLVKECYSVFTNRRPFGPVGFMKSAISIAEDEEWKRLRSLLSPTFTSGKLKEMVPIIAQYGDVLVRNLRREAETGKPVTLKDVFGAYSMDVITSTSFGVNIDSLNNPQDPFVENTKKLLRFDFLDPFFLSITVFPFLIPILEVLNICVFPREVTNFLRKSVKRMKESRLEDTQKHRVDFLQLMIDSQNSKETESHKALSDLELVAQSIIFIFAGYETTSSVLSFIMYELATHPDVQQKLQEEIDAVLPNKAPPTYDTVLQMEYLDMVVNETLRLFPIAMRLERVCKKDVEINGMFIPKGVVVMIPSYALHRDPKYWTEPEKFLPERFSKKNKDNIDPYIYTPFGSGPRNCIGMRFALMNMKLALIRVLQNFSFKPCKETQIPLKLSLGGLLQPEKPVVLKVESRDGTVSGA
L1196M mutated ALK kinase, sequence (Q9UM73 19-1620 L1196M): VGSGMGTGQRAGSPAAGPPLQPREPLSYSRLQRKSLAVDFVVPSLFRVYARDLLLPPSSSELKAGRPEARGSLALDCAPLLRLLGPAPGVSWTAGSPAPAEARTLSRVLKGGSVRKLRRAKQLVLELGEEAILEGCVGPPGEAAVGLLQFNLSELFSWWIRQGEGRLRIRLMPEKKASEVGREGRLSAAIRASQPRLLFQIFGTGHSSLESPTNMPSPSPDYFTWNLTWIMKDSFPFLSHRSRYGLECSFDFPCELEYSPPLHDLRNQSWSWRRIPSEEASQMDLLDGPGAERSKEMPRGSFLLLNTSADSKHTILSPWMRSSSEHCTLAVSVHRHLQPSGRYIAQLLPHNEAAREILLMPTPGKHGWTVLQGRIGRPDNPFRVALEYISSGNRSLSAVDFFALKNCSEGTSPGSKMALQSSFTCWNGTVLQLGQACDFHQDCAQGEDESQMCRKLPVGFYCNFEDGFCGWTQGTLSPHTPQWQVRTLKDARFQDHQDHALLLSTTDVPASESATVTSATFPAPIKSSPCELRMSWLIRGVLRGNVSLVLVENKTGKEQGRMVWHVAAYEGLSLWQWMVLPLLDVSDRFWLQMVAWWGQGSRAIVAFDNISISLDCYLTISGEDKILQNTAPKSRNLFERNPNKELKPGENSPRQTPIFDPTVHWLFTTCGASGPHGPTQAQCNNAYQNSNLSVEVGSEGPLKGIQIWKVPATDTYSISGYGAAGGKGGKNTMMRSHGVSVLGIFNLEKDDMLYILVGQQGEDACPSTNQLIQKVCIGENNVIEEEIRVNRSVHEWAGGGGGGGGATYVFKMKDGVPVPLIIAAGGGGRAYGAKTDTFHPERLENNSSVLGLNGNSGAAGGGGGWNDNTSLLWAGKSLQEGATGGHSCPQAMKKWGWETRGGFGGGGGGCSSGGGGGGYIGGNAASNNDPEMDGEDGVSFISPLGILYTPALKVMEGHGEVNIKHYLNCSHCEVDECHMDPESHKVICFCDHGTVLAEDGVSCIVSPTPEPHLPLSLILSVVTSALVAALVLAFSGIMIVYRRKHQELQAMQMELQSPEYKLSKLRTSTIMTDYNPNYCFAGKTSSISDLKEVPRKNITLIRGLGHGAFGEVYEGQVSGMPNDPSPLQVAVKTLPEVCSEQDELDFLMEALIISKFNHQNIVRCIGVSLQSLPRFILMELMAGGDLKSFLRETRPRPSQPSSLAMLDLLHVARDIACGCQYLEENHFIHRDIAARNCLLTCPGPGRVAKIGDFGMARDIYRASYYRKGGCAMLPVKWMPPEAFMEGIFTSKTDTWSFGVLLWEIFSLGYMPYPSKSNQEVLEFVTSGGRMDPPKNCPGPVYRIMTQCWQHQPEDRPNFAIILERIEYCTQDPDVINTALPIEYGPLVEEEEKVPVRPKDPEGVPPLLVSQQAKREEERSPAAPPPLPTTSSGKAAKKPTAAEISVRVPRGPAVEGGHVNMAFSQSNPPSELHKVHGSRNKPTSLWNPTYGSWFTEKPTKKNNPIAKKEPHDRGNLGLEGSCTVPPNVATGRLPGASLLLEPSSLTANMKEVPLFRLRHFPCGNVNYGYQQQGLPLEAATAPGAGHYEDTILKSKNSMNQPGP
ALK kinase, sequence (Q9UM73 19-1620): as the sequence (Q9UM73 19-1620 L1196M) above, with M1178L counted along it
G1269S mutated ALK kinase, sequence (Q9UM73 19-1620 G1269S): as the sequence (Q9UM73 19-1620 L1196M) above, with M1178L, G1251S counted along it

For the compound `COc1cc(N2CCNC[C@@H]2C)ncc1-c1cnc(N)c(O[C@H](C)c2c(Cl)ccc(F)c2Cl)c1` [Example 27, 5-((R)-1-(2,6-dichloro-3-fluorophenyl)ethoxy)-4′-methoxy-6′-((S)-2-methylpiperazin-1-yl)-[3,3′-bipyridin]-6-amine], on CYP-3A4, the “inhibition against CYP-3A4 (in words)” value is on record as “no significant inhibition” and the IC50 was above 10000 nM. The “Average tumor volume (mm^3) D0” value in data set [1] (12.5 mg/kg PO) is 134.3 mm^3. In data set [1] (12.5 mg/kg PO, D21), the “% Inhibition rate D21” value came to 78%, the “% T/C D21” value stood at 22% and the “Average tumor volume (mm^3) D21” value was 394.8 mm^3. The “Average tumor volume (mm^3) D0” value in data set [1] (25 mg/kg PO) is 131.0 mm^3. Besides, the “Average tumor volume (mm^3) D21” value in data set [1] (25 mg/kg PO, D21) is reported as 21.7 mm^3. For the same compound, the “% T/C D21” value in data set [1] (25 mg/kg PO, D21, tumor regression formula) is reported as −83%. Further, the IC50 at ALK kinase turned out to be 1.96 nM. The IC50 in data set [2] was 35.1 ± 5.3 nM. The IC50 in data set [3] worked out at 61.3 ± 7.9 nM. In addition, in data set [4], the AUC(0-inf) is 601 ng·h/mL, the Cmax was 69.7 ng/mL, the time to peak (Tmax) was 3.67 h and the half-life is 5.45 h.

`CCOc1cc(N2CCNC[C@@H]2C)ncc1-c1cnc(N)c(O[C@H](C)c2c(Cl)ccc(F)c2Cl)c1` [Example 53, 5-((R)-1-(2,6-dichloro-3-fluorophenyl)ethoxy)-4′-ethoxy-6′-((S)-2-methylpiperazin-1-yl)-[3,3′-bipyridin]-6-amine]: in data set [4], the AUC(0-inf) was found to be 830 ng·h/mL, the highest level (Cmax) was 62.6 ng/mL, the time of peak concentration (Tmax) is 3.33 h and the half-life is 4.75 h.

Take `COc1cc(-c2cnc(N)c(O[C@H](C)c3c(Cl)ccc(F)c3Cl)c2)cnc1C1=CCNCC1` [Example 30, (R)-5-(1-(2,6-dichloro-3-fluorophenyl)ethoxy)-5′-methoxy-1″,2″,3″,6″-tetrahydro-[3,3′:6′,4″-terpyridin]-6-amine]: at CYP-3A4, the “inhibition against CYP-3A4 (in words)” value is on record as “no significant inhibition” and the IC50 was above 10000 nM. For the same compound, in “in vivo”, the AUC(0-inf) worked out at 1270 ng·h/mL, the highest level (Cmax) was 113 ng/mL, the Tmax came to 3 h and the half-life was 4.43 h.
